Measurements taken from paper PMC8196580, “Identification of Kaurane-Type Diterpenes as Inhibitors of Leishmania Pteridine Reductase I” (Molecules, 2021).
Like-named read-outs stand apart in the source and are kept apart here.

Legend:
L. major [1] = assay: ChEMBL dataset of pIC50 values against L. major used for the RF model (Table S1); assay type: cell-based, Leishmania major; note: call rule not given here
L. major [2] = tested on: L. major; design: method as in ChEMBL; conditions: ref ChEMBL, cited from earlier work
[3] = Active/Inactive class assigned to the ChEMBL pIC50 value for Random forest model construction, ref ChEMBL
[4] = ChemBL structures with pIC50 values used for Random forest model construction, L. major
[5] = Active/Inactive class assigned to ChemBL structures for Random forest model construction (Table S1)
[6] = ChemBL structures with pIC50 values used for Random forest model construction (Table S1)

| SMILES | Outcome (L. major [1]; [3]) | pIC50 Value (L. major [2]; [4]) | Outcome (L. major [1]; [5]) | pIC50 Value (L. major [2]; [6]) |
| --- | --- | --- | --- | --- |
| CC(C)(O)[C@@H]1CC[C@](C)([C@@H]2[C@@H](O)C[C@@]3(C)[C@@H]4C[C@H](O)[C@H]5C(C)(C)[C@@H](O)CC[C@@]56C[C@@]46CC[C@]23C)O1 [CHEMBL504655] | Inactive | 3.97 | – | – |
| Oc1ccc(-c2nc3ccccc3[nH]2)cc1 [CHEMBL377740] | – | – | Active | 5.36 |
| Cc1ccsc1C(=O)/C=C/c1cc2cccc(C)c2nc1Cl [CHEMBL1940862] | – | – | Active | 5.54 |
| Cc1ccc(/N=C/c2cn(C)c3ccccc23)cc1 [CHEMBL2071553] | – | – | Active | 5.58 |
| COc1ccc(-c2nnc3sc(-c4ccc(F)cc4)nn23)cc1 [CHEMBL1256800] | Inactive | 4.00 | – | – |
| CCCCCCOc1ccc(Nc2c3ccccc3nc3ccccc23)cc1 [CHEMBL89758] | – | – | Active | 6.00 |
| O=[N+]([O-])c1ccc(-c2nnc(N3CCCCC3)s2)o1 [CHEMBL372172] | – | – | Active | 5.49 |
| Cc1ccc(N2C(=O)C(c3ccccc3)(c3ccccc3)C2c2cn(C)c3ccccc23)cc1 (centres unmarked) [CHEMBL2071561] | – | – | Active | 5.88 |
| C/C=C/C=C/c1nc2cccc(OC)c2n2cccc12 [CHEMBL3260209] | – | – | Active | 5.48 |
| N#Cc1ccc(N2CCN(c3nnc(-c4ccc([N+](=O)[O-])o4)s3)CC2)cc1 [CHEMBL1783198] | Inactive | 3.98 | – | – |
| COc1ccccc1Nc1ncnc2ccc([N+](=O)[O-])cc12 [CHEMBL3758369] | – | – | Active | 5.36 |
| Cc1ccc(/C=C/C(=O)C2=Cc3cc(Cl)ccc3OC2)cc1 [CHEMBL1094967] | – | – | Active | 5.56 |
| COc1ccccc1C(=O)N/N=C/c1cccnc1 [CHEMBL2382042] | – | – | Active | 5.71 |
| c1c[nH]c(-c2nc3ccccc3[nH]2)c1 [CHEMBL2298016] | – | – | Active | 5.46 |
| C[C@@H](OP(N)(=O)N(CCCl)CCCl)c1ccc([N+](=O)[O-])cc1 (some centres unmarked) [CHEMBL2158071] | Inactive | 4.52 | – | – |
| O=C(/C=C/c1ccc(-n2ccnc2)cc1)c1cccc(O)c1 [CHEMBL571179] | – | – | Active | 5.48 |
| C[C@@H]([C@H]1CC=C2[C@@H]3CCC4=C[C@@H](N(C)C)CC[C@]4(C)[C@H]3CC[C@@]21C)N(C)C [CHEMBL496488] | Active | 5.17 | – | – |
| CN(C)c1nccn2c(I)c(-c3ccc(F)cc3)nc12 [CHEMBL3634361] | Inactive | 4.00 | – | – |
| CCCCCCCCCC(=O)OCCc1ccc(O)cc1 [CHEMBL3960630] | Inactive | 4.19 | – | – |
| c1cncc(-c2nc3ccccc3[nH]2)c1 [CHEMBL83103] | – | – | Active | 5.48 |
| COc1cc2c(c(OC)c1)C(C)=[N+](c1ccc3cc(C)cc(OC)c3c1O)[C@@H](C)C2.O=C([O-])C(F)(F)F [CHEMBL426747] | – | – | Active | 5.91 |
| COc1ccccc1-c1nnc(-c2ccc(C(=O)N/N=C/c3ccc([N+](=O)[O-])cc3)cc2)o1 [CHEMBL4067171] | Inactive | 4.25 | – | – |

| SMILES | Outcome (L. major [1]; [3]) | pIC50 Value (L. major [2]; [4]) | Outcome (L. major [1]; [5]) | pIC50 Value (L. major [2]; [6]) |
| --- | --- | --- | --- | --- |
| COc1cc(OC)c2c(C)[n+](-c3cccc4cc5ccccc5cc34)c(C)cc2c1.F[B-](F)(F)F [CHEMBL482394] | – | – | Active | 6.14 |
| C=CC(C)(C)c1cc(/C=C/C(=O)c2ccc(O)cc2)c(OC)cc1O [CHEMBL139702] | Inactive | 4.85 | – | – |
| CCN(CC)c1ccc(Nc2c3ccccc3nc3ccccc23)cc1 [CHEMBL315530] | – | – | Active | 6.40 |
| CC1=N[C@H](C)Cc2c(-c3ccccc3)ccc(O)c21 [CHEMBL1275788] | Inactive | 4.00 | – | – |
| CCOC(=O)c1ccc(-c2c(-c3ccccc3)nc3cnccn23)cc1 [CHEMBL3634353] | Inactive | 4.76 | – | – |
| COc1cccc2c(-c3ccc(O)c4c3CC(C)(C)N=C4)ccc(O)c12 [CHEMBL1277993] | Inactive | 4.00 | – | – |
| CCCCCCN(C)c1ccc(Nc2c3ccc(N(C)C)cc3nc3cc(N(C)C)ccc23)cc1 [CHEMBL88461] | – | – | Active | 7.15 |
| ClCCN1c2ccccc2Oc2ccc(Cl)cc21 [CHEMBL3759618] | Inactive | 4.00 | – | – |
| CC1=C(C(=O)/C=C/c2ccc(Cl)cc2)C(c2ccccc2)NC(=O)N1C (centres unmarked) [CHEMBL3785670] | – | – | Active | 5.77 |
| CO[C@H]1C[C@@H](C)[C@H]2[C@H](C[C@@]3(C)[C@@H]4C[C@H](O)[C@H]5C(C)(C)[C@@H](O[C@@H]6OC[C@@H](O)[C@@H](O)[C@H]6O)CC[C@@]56C[C@@]46CC[C@]23C)O1 [CHEMBL450438] | Inactive | 4.03 | – | – |
| CC(=O)C1=C(C)NC(=O)NC1c1ccccc1 (centres unmarked) [CHEMBL1496818] | – | – | Active | 5.58 |
| O=[N+]([O-])c1ccc(-c2nc3ccccn3c2-c2ccccc2)cc1 [CHEMBL2151880] | Inactive | 4.52 | – | – |
| O=C(CCl)n1c2ccccc2c2ccccc21 [CHEMBL1651449] | Inactive | 4.00 | – | – |
| CN(C)c1nccn2c(-c3ccncc3)c(-c3ccc(F)cc3)nc12 [CHEMBL3634367] | Active | 5.19 | – | – |
| CCCCN(CCCC)c1ccc(Nc2c3ccccc3nc3ccccc23)cc1 [CHEMBL312941] | – | – | Active | 6.46 |
| COc1ccccc1C(=O)N/N=C/c1ccc(OC)c(O)c1I [CHEMBL2382052] | Inactive | 4.20 | – | – |
| CCCCCN(CCCCC)c1ccc(Nc2c3ccccc3nc3ccccc23)cc1 [CHEMBL89031] | – | – | Active | 6.80 |
| C#CCOc1ccc(C(=O)/C=C/c2ccc(F)cc2)c(OCC#C)c1 [CHEMBL4162285] | Active | 5.00 | – | – |
| Cc1ccc(C2=NNC(c3cc4cccc(C)c4nc3Cl)C2)s1 (centres unmarked) [CHEMBL2235720] | – | – | Active | 5.58 |
| CCN(CC)CCCNc1ccc(Nc2c3ccccc3nc3ccccc23)cc1 [CHEMBL89458] | – | – | Active | 6.70 |
| Clc1cc(Cl)cc(-c2nc3ccccn3c2-c2ccccc2)c1 [CHEMBL2151989] | Inactive | 4.41 | – | – |
| COc1ccc(-c2ccc(C(F)(F)F)cc2)c2c1C(C)=N[C@H](C)C2 [CHEMBL1278172] | Inactive | 4.00 | – | – |

| SMILES | Outcome (L. major [1]; [3]) | pIC50 Value (L. major [2]; [4]) | Outcome (L. major [1]; [5]) | pIC50 Value (L. major [2]; [6]) |
| --- | --- | --- | --- | --- |
| COc1cccc(C(=O)/C=C/c2ccc(-n3ccnc3)cc2)c1 [CHEMBL569119] | – | – | Active | 5.49 |
| COc1ccccc1-c1nnc(-c2ccc(C(=O)N/N=C/c3ccccc3F)cc2)o1 [CHEMBL4060698] | Active | 5.29 | – | – |
| COc1cc2c(c(OC)c1)C(C)N(c1ccc(C(C)C)cc1)C(C)C2 (centres unmarked) [CHEMBL481808] | Inactive | 4.30 | – | – |
| COc1ccc(C2NC(=O)NC(C)=C2C(C)=O)cc1 (centres unmarked) [CHEMBL1369396] | – | – | Active | 5.58 |
| COc1ccccc1C(=O)N/N=C/c1cc(O)ccc1O [CHEMBL2382047] | Inactive | 4.46 | – | – |
| O=[N+]([O-])c1ccc2ncnc(Nc3ccccc3Cl)c2c1 [CHEMBL3758623] | Active | 5.19 | – | – |
| CCCCCCNc1ccc(Nc2c3ccccc3nc3ccccc23)cc1OC [CHEMBL88507] | – | – | Active | 6.40 |
| C/C=C/C=C/C=C/c1nc2ccccc2n2cccc12 [CHEMBL3260218] | – | – | Active | 5.92 |
| CC[C@H](CO)Nc1nc(NCc2ccc(Br)cc2)c2ncn(C(C)C)c2n1 [CHEMBL3423090] | Inactive | 4.71 | – | – |
| CC[C@H](CO)Nc1nc(NCc2cc(C)ccc2O)c2ncn(C(C)C)c2n1 [CHEMBL3423080] | – | – | Active | 5.64 |
| COc1cc(/C=N\NC(N)=S)ccc1OCc1cn(CC(=O)c2ccc(Cl)cc2)nn1 [CHEMBL4164916] | Active | 5.27 | – | – |
| COc1ccccc1-c1nnc(-c2ccc(C(=O)N/N=C/c3cc(O)ccc3O)cc2)o1 [CHEMBL4059674] | – | – | Active | 5.35 |
| N=C(N)c1ccc(OCCCCCOc2ccc(C(=N)N)cc2)cc1.O=S(=O)(O)CCO [CHEMBL935] | Inactive | 4.08 | – | – |
| COc1ccc2c(c1)C=C(/C=C/C(=O)c1ccc(Cl)c(Cl)c1)CO2 [CHEMBL3329270] | – | – | Active | 6.00 |
| CC1=N[C@H](C)Cc2c(-c3ccc(C)cc3)ccc(O)c21 [CHEMBL1275822] | Inactive | 4.07 | – | – |
| c1ccc2c(Nc3ccc(CN4CCCC4)cc3)c3ccccc3nc2c1 [CHEMBL91079] | – | – | Active | 6.70 |
| O=[N+]([O-])c1ccc2nc(-c3ccc[nH]3)[nH]c2c1 [CHEMBL2297906] | – | – | Active | 5.40 |
| COc1cc(OC)c2c(C)[n+](-c3ccccc3)c(C)cc2c1.[O-][Cl+3]([O-])([O-])[O-] [CHEMBL3706858] | Inactive | 4.58 | – | – |
| CC1=C2C(=O)c3c(OC(=O)c4ccc(Br)cc4)ccc(OC(=O)c4ccc(Br)cc4)c3CC2(C)CCC1=O (centres unmarked) [CHEMBL255868] | Inactive | 4.43 | – | – |
| CC1=C(C(=O)Nc2ccc(C(=O)/C=C/c3cccc([N+](=O)[O-])c3)cc2)C(c2ccc(C)cc2)NC(=S)N1 (centres unmarked) [CHEMBL3786068] | – | – | Active | 5.90 |
